Activity calls are given as the source filed them. The calls are words filed in the database; no cut-off is given here.
Experiments:
PC-3 = assay: Antiproliferative activity against human PC-3 cells assessed as cell growth inhibition incubated for 44 hrs by MTT assay; type: functional, cell-based; conditions: PC-3, 44 h
A549 = assay: Antiproliferative activity against human A549 cells assessed as cell growth inhibition incubated for 44 hrs by MTT assay; type: functional, cell-based; conditions: A549, 44 h
HCT-116 [1] = assay: Antiproliferative activity against human HCT-116 cells assessed as cell growth inhibition incubated for 44 hrs by MTT assay; type: functional, cell-based; conditions: HCT-116, 44 h
[2] = Cmax in BALB/c mouse at 20 mg/kg, ip measured upto 24 hrs by LC-MS/MS analysis; type: ADME, organism-based; set-up: dose 20 mg/kg, time < 24 hrs, route ip; conditions: in vivo
[3] = Tmax in BALB/c mouse at 20 mg/kg, ip measured upto 24 hrs by LC-MS/MS analysis; type: ADME, organism-based; conditions: in vivo
HCT-116 [4] = assay: Induction of DNA damage in human HCT-116 cell assessed as comet tail formation at 0.5 uM incubated for 24 hrs by EtBr-based alkaline Comet assay (Rvb= 2.99 %); type: functional
HCT-116 [5] = assay: Inhibition of DNA repairing pathway in human HCT-116 cells assessed as downregulation of MRE11 protein expression at 0.25 to 2 uM incubated for 24 hrs by immunoblotting analysis; type: functional, cell-based; conditions: dose 0.25-2 µM
HCT-116 [6] = assay: Inhibition of epithelial-to-mesenchymal transition in human HCT-116 cells assessed as upregulation of E-cadherin protein expression by immunoblot analysis; type: functional, cell-based
HCT-116 [7] = assay: Inhibition of epithelial-to-mesenchymal transition in human HCT-116 cells assessed as downregulation of Snail-1 protein expression by immunoblot analysis; type: functional, cell-based
HCT-116 [8] = assay: Inhibition of epithelial-to-mesenchymal transition in human HCT-116 cells assessed as reduction in VEGF-induced cell scattering incubated for 48 hrs by inverted microscopic analysis; type: functional, cell-based
HCT-116 [9] = assay: Induction of DNA damage in human HCT-116 cell assessed as comet tail formation at 1 uM incubated for 24 hrs by EtBr-based alkaline Comet assay (Rvb= 2.99 %); type: functional
HCT-116 [10] = assay: Inhibition of DNA repairing pathway in human HCT-116 cells assessed as increase in gamma-H2AX level at 0.25 to 2 uM incubated for 24 hrs by immunoblotting analysis; type: functional, cell-based; conditions: dose 0.25-2 µM
[11] = Toxicity in BALB/c mouse implanted with mouse 4T1 cells at 20 mg/kg, ip administered every alternate day for 2 weeks; type: organism-based; conditions: in vivo, 336 h

Work on `COC(=O)[C@]1([C@H]2CCn3c2nc2ccccc2c3=O)NCCc2c1[nH]c1ccccc21` (racemic) yielded an IC50 (PC-3) of 6050 nM, an IC50 (A549) of 1680 nM and an IC50 (HCT-116 [1]) of 1020 nM. It also gave a Cmax [2] of 4490 ng/mL, a Tmax [3] of 48 min and an Activity (HCT-116 [4]) of 31.99%. For the same molecule, the inhibition (HCT-116 [5]) was “Active”, the inhibition (HCT-116 [6]) was “Active” and the inhibition (HCT-116 [7]) was “Active”. For the same molecule, the inhibition (HCT-116 [8]) was “Active”, the Activity (HCT-116 [9]) was 48% and the inhibition (HCT-116 [10]) was “Active”. The Activity [11] was “Non-Toxic”.

Reference: ChEMBL document CHEMBL5325471, “Identification of new modulator of DNA repairing pathways based on natural product (±)-peharmaline A” (Bioorg Med Chem, 2023)
